According to the NIST ThermoML archive (doi:10.1007/s10765-009-0568-4):
“And” between values parts separate entries of the source, which are not always exact repeats. Equal entries are not always repeated.

Experiment: molar heat capacity at constant pressure
Conditions: 101.33 kPa, Crystal

O=C([O-])c1ccccc1.[K+] [potassium benzoate]
Conditions	molar heat capacity at constant pressure
78.05 K	64.02 J/K/mol
79.77 K	65.4 J/K/mol
80 K	66.51 J/K/mol
82.44 K	67.11 J/K/mol
85 K	69.25 J/K/mol
85.05 K	69.06 J/K/mol
87.58 K	70.57 J/K/mol
90 K	71.99 J/K/mol
90.05 K	72.16 J/K/mol
92.46 K	73.51 J/K/mol
94.82 K	75.08 J/K/mol
95 K	74.71 J/K/mol
97.13 K	76.49 J/K/mol
99.4 K	77.52 J/K/mol
100 K	77.41 J/K/mol
101.6 K	78.59 J/K/mol
103.8 K	79.84 J/K/mol
105 K	80.09 J/K/mol
106 K	81.03 J/K/mol
108.1 K	82.38 J/K/mol
110 K	82.77 J/K/mol
110.2 K	83.34 J/K/mol
112.2 K	84.3 J/K/mol
114.2 K	85.15 J/K/mol
115 K	85.42 J/K/mol
116.3 K	86.65 J/K/mol
118.3 K	87.5 J/K/mol
120 K	88.06 J/K/mol
120.4 K	88.67 J/K/mol
123.5 K	90.49 J/K/mol
125 K	90.69 J/K/mol
127.5 K	92.84 J/K/mol
130 K	93.3 J/K/mol
131.5 K	94.64 J/K/mol
135 K	95.9 J/K/mol
135.4 K	96.31 J/K/mol
139.4 K	98.35 J/K/mol
140 K	98.48 J/K/mol
143.3 K	100.4 J/K/mol
145 K	101 J/K/mol
147.2 K	102.3 J/K/mol
150 K	103.6 J/K/mol
151.1 K	103.9 J/K/mol
154.9 K	105.6 J/K/mol
155 K	106.1 J/K/mol
158.6 K	107.2 J/K/mol
160 K	108.6 J/K/mol
162.3 K	108.9 J/K/mol
165 K	111.2 J/K/mol
166 K	110.7 J/K/mol
169.7 K	112.6 J/K/mol
170 K	113.6 J/K/mol
173.3 K	114.5 J/K/mol
175 K	116.1 J/K/mol
176.9 K	115.9 J/K/mol
180 K	118.6 J/K/mol
180.4 K	117.8 J/K/mol
185 K	121 J/K/mol
185.2 K	119.9 J/K/mol
190 K	123.5 J/K/mol
190.3 K	122.8 J/K/mol
194.3 K	124.8 J/K/mol
195 K	125.9 J/K/mol
198.3 K	127 J/K/mol
200 K	128.3 J/K/mol
202.2 K	129 J/K/mol
205 K	130.6 J/K/mol
206.2 K	131.6 J/K/mol
210 K	133 J/K/mol
210.2 K	133.5 J/K/mol
214.1 K	135.5 J/K/mol
215 K	135.4 J/K/mol
218.1 K	137.3 J/K/mol
220 K	137.7 J/K/mol
222.1 K	139.3 J/K/mol
225 K	140 J/K/mol
226.1 K	141 J/K/mol
230 K	142.3 J/K/mol
230.1 K	142.7 J/K/mol
234 K	144.9 J/K/mol
235 K	144.6 J/K/mol
237.9 K	146.3 J/K/mol
240 K	146.9 J/K/mol
243.1 K	149 J/K/mol
245 K	149.2 J/K/mol
248.2 K	151.2 J/K/mol
250 K	151.4 J/K/mol
252.2 K	152.7 J/K/mol
255 K	153.7 J/K/mol
256.1 K	154.1 J/K/mol
260 K	155.9 J/K/mol
260.1 K	156.2 J/K/mol
264.1 K	158.2 J/K/mol
265 K	158.1 J/K/mol
268.1 K	160.2 J/K/mol
270 K	160.3 J/K/mol
272.1 K	161.4 J/K/mol
275 K	162.5 J/K/mol
276.1 K	163.3 J/K/mol
280 K	165.1 J/K/mol and 164.6 J/K/mol
284 K	166.4 J/K/mol
285 K	166.8 J/K/mol
287.9 K	168.1 J/K/mol
290 K	168.9 J/K/mol
291.8 K	169.9 J/K/mol
295 K	171 J/K/mol
295.9 K	171.5 J/K/mol
298.15 K	172.3 J/K/mol
299.8 K	172.8 J/K/mol
300 K	173.1 J/K/mol
303.7 K	174.3 J/K/mol
305 K	175.2 J/K/mol
307.8 K	176.1 J/K/mol
310 K	177.3 J/K/mol
311.7 K	177.6 J/K/mol
315 K	179.3 J/K/mol
315.6 K	179.5 J/K/mol
319.5 K	180.7 J/K/mol
320 K	181.4 J/K/mol
323.5 K	182.2 J/K/mol
325 K	183.4 J/K/mol
327.4 K	183.7 J/K/mol
330 K	185.4 J/K/mol
331.4 K	185.4 J/K/mol
335 K	187.4 J/K/mol
335.5 K	187.1 J/K/mol
339.4 K	188.7 J/K/mol
340 K	189.4 J/K/mol
343.5 K	190.7 J/K/mol
345 K	191.4 J/K/mol
346.5 K	192.2 J/K/mol
349.5 K	193.4 J/K/mol
350 K	193.3 J/K/mol
353.5 K	195 J/K/mol
355 K	195.3 J/K/mol
357.5 K	196.3 J/K/mol
360 K	197.2 J/K/mol
361.4 K	197.9 J/K/mol
365 K	199.1 J/K/mol
365.3 K	199.4 J/K/mol
369.2 K	200.8 J/K/mol
370 K	201 J/K/mol
373.3 K	202.3 J/K/mol
375 K	202.9 J/K/mol
377.4 K	203.7 J/K/mol
380 K	204.8 J/K/mol
381.4 K	205.6 J/K/mol
385 K	206.6 J/K/mol
385.4 K	206.8 J/K/mol
389.4 K	208.1 J/K/mol
390 K	208.4 J/K/mol
393.4 K	209.9 J/K/mol
395 K	210.3 J/K/mol
397.3 K	211.1 J/K/mol
